Values of other authors, collected in patent US20040023969A1, “Combination of an allosteric alkyne inhibitor of matrix metalloproteinase-13 with celecoxib or valdecoxib” (priority 2002, published 2004).

Q: With `Cc1onc(-c2ccccc2)c1-c1ccc(S(N)(=O)=O)cc1` [valdecoxib, 4-(5-methyl-3-phenyl-4-isoxazolyl)-benzenesulfonamide] as the compound, how does the “Tolerability in clinical studies” value (combined analysis of various clinical studies) read?
A: well tolerated

Q: What about the “Overall upper gastrointestinal safety profile (ulcers, perforations, obstructions and GI bleeds)” value (compared with ibuprofen, diclofenac and naproxen) of the same compound?
A: significantly better than the conventional NSAIDs studied
